According to patent US11752122B2 (OKLAHOMA MEDICAL RESEARCH FOUNDATION, priority 2018, dated 2023):

What was measured:
TGF-β1 = biological target: T1, TGF-β1 (Mus musculus, UniProt P04202); assay: Shear-dependent TGF-β1 activation in platelet-rich plasma from NAC-treated mice (ELISA); assay type: in vivo; conditions: PRP from NAC-treated vs control mice, shear force of 1,800 s^−1 for 2 hours, ELISA (FIG. 4A)
T1 construct: Active TGF-β1 levels in platelet-rich plasma from NAC-treated (n=6) and -untreated (n=8) mice after in vitro stirring; from tissue; host or cells: mouse platelet-rich plasma (blood)
T1 sequence (P04202 30-278 limits assumed): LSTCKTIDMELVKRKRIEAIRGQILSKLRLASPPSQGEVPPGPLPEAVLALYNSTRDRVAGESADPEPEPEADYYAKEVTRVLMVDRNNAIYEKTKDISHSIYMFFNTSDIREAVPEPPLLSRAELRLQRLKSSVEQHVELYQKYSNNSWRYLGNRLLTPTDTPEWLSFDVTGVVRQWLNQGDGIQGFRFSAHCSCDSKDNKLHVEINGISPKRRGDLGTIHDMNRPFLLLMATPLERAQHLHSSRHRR
T1 sequence (P04202 279-390 limits assumed): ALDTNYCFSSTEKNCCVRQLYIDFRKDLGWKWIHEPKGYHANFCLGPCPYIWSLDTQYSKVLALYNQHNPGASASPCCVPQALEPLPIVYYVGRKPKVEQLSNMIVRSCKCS
T1 sequence (Q8CG19 24-1712 partner): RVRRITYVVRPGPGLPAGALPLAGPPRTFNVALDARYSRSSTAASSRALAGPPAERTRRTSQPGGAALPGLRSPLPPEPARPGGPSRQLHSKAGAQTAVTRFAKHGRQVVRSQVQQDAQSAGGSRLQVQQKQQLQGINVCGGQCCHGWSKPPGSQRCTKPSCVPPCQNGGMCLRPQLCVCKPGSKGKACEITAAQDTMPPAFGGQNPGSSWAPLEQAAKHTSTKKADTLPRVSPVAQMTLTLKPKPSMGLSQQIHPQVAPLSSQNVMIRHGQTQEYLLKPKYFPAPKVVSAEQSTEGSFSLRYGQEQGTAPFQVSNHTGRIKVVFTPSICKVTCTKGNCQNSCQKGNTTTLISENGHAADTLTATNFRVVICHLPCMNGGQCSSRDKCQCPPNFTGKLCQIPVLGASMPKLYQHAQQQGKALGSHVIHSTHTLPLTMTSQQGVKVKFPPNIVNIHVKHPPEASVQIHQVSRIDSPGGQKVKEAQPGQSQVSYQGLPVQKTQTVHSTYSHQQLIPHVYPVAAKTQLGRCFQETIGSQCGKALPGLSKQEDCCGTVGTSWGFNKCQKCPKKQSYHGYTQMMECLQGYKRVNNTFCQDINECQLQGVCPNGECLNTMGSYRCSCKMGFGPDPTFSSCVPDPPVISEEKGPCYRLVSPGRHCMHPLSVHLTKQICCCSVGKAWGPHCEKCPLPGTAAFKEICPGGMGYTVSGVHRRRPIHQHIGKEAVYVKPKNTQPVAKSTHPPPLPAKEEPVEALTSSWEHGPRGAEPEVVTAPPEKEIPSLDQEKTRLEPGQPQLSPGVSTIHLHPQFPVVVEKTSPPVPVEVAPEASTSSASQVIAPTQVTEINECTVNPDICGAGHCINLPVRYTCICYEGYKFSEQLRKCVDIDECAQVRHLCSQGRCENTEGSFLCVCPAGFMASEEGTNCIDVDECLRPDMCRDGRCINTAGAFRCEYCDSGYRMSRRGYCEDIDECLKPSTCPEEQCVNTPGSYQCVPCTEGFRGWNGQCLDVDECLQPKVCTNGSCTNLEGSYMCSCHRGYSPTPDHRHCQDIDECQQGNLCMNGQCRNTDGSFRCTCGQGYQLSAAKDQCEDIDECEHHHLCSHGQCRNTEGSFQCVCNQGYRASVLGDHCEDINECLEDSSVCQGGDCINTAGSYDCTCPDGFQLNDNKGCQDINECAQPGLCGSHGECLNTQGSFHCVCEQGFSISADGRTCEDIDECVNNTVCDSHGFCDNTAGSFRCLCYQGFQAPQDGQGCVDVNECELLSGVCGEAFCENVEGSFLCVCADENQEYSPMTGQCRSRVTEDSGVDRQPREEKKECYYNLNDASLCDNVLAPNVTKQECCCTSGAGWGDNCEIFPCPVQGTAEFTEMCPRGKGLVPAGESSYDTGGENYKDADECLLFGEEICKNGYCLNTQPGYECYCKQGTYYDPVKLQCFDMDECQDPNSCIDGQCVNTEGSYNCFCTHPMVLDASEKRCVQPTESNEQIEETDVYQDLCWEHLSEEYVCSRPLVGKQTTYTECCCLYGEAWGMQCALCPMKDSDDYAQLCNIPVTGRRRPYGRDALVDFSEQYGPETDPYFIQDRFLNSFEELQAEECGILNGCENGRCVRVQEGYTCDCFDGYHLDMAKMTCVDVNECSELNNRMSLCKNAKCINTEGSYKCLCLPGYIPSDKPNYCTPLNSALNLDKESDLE

[1] = system: aortic valves of LDLR mice on HFD; assay: Histology and immunohistochemical staining of aortic valves of LDLR mice on HFD; assay type: in vivo; conditions: LDLR mice at 6 months on HFD, NAC 3-5 and 5-6 months combined, vs untreated
Experimental: Histology and immunofluorescent staining of aortic valve sections. Mice receiving HFD were euthanized at 6 months and perfused with PBS. Hearts with their attached ascending aorta were excised, fixed in 4% paraformaldehyde for 24 hours and processed for routine paraffin embedding. Tissues were cut in 5 μm thick sections in the middle of the heart to get maximum valve thickness (FIG. 12) and stained with picrosirius red for collagen. For immunofluorescent staining, tissue sections were deparaffinized and rehydrated by immersing in xylene and a series of graded alcohols, followed by heat (97° C.)-induced epitope retrieval using Tris-EDTA buffer, pH 9.0 for 30 minutes. Slides were incubated for 1 hour at RT with blocking buffer (1% BSA+0.3M glycine in Tris-NaCl-Tween buffer) and then incubated overnight at 4° C. with primary antibodies at final concentrations of 0.5 μg/ml. After washing in wash buffer (Tris-NaCl-Tween) and incubation with a fluorescent secondary antibody at RT for 2 hours, slides were washed with wash buffer three times and mounted with a fluorescence mounting medium containing diamidino-2-phenylindole (DAPI) to stain nuclei.
Images were photographed using Ziess 710 Confocal or Nikon eclipse 80i fluorescence microscope. Positively-stained areas and total valve areas in immunohistochemical and histological images were quantified as shown in FIG. 13. Primary antibodies used were anti-phospho-Smad2 (Ser465/467) (AB3849, Millipore), anti-vimentin (ab92547, Abcam), anti-α-SMA (904601, Biolegend), Isolectin B4 (121411, Life Technologies), anti-CD41 (14-0411, eBioscience), anti-CD62P (148301, Biolegend), and anti-collagen (SAB1402151, Sigma). Species-matched secondary antibodies conjugated to Alexa 488, Alexa 594, or Alexa 647 were used. Histology images were analyzed and quantified using ImageJ (NIH).

[2] = system: ascending aortic constriction (AAC) model; assay: Cardiac fibrosis in ascending aortic constriction (AAC) model; assay type: in vivo, mice; conditions: high shear pressure overload AAC model, NAC treatment (data not shown)
Source text: Ascending Aortic Constriction. Ascending aortic constriction was induced by controlled constriction of the ascending aorta as described previously 26. Briefly, mice were anesthetized with 1.5% isoflurane and the ascending aorta was surgically exposed by a mid-thorax incision. A 2 7-0 suture was placed around both the aorta and an adjacent 27-gauge (0.41 mm OD) needle proximal to the origin of the innominate artery. […] Mice were sacrificed and tissues collected 1 month after the surgery.

[3] = cited from earlier work
mouse model = conditions: large doses, mouse model; cited from earlier work

In the case of `CC(=O)N[C@@H](CS)C(=O)O` [NAC, N-acetylcysteine], the “TGF-β1 activation (active TGF-β1 levels) in PRP” value (TGF-β1) was “much lower”, the aortic valve area [1] was “reduced” and the “fibrosis in aortic valves” value [1] was “reduced”. For the same compound, the “p-Smad2 staining in aortic valves” value [1] was “reduced”, the cardiac fibrosis [2] was “inhibits cardiac fibrosis” and the Urine excretion ([3]; in vivo) was 22-30%. For the same compound, the metabolism ([3]; liver) was “extensively liver metabolized” and the “damage to the heart and lungs” value (mouse model) was “could potentially cause damage to the heart and lungs”.
